Here are results for one molecule from publication PMC10714930, “In silico virtual screening for the identification of novel inhibitors against dihydrodipicolinate reductase (DapB) of Mycobacterium tuberculosis, a key enzyme of diaminopimelate pathway” (Microbiology Spectrum, 2023).

The structures appear in SMILES notation. ≈ marks a conversion by molar mass, not a printed value.

This assay deals with M. tb.pFICTO-dapB. The assay can be described thus: microbe, parasite or virus in culture. Type of assay: cell-based, Mycobacterium tuberculosis.

Turning to `COC(=O)CCCc1nc2ccccc2nc1N=Nc1ccccc1` [Compound B59, 4-(3-Phenylazoquinoxalin-2-yl) butanoic acid methyl ester], the “MIC99 in overexpressing strain relative to wild type” value (M. tb.pFICTO-dapB vs M. tb H37Rv) stood at 2 x MIC99. The MIC99 (Mycobacterium tuberculosis, 168 h, M. tb.pFICTO-dapB, 7 days, read-out: MIC99 against DapB-overexpressing strain) is 40 µg/mL (≈ 120 µM).
